From patent publication US11254688B2 (Boehringer Ingelheim International GmbH, priority 2018, dated 2022)

target: T1, hGOAT (Homo sapiens, UniProt Q96T53); test: Determination of hGOAT activity in HEK293 cells after incubation with test compound (acyl-ghrelin ELISA); type: cell-based; details: HEK293 cells stably transfected with preproghrelin and human GOAT; octanoate-BSA 100 μM; 5 hours incubation; acyl-ghrelin in medium by ELISA; 8 compound concentrations
T1 construct: expressed in transfected cells; host or cells: HEK293 (Hek293 hGOAT/PPGhrl Clone #1B8)
T1 sequence (Q96T53 1-435): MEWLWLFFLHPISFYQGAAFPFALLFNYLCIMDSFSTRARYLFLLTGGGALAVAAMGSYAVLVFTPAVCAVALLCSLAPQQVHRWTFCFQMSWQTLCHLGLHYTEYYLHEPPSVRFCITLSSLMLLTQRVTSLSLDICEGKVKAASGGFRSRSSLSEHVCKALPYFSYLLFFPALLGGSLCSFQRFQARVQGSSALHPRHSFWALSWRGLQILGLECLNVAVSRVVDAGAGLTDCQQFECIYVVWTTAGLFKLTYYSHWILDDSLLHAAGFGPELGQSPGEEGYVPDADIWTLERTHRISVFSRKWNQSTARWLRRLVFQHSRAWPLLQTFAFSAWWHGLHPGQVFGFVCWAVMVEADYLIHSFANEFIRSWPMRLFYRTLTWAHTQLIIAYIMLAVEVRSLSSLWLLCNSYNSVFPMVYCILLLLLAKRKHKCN

Row | SMILES | IC50
1 | Cc1nc2nonc2c(N)c1Cc1ccc(C#N)c(OCC2CC2(F)F)c1 (centres unmarked) [Compound 21.5, 4-({7-Amino-5-methyl-[1,2,5]oxadiazolo[3,4-b]pyridin-6-yl}methyl)-2-[(2,2-difluorocyclopropyl)methoxy]benzonitrile] | 0.198 nM
2 | CNC(=O)c1ccc(Cc2c(C)nc3nonc3c2N)cc1 [Compound 14.18, 4-({7-Amino-5-methyl-[1,2,5]oxadiazolo[3,4-b]pyridin-6-yl}methyl)-N-methylbenzamide] | 7.77 nM
3 | Cc1nc2nonc2c(N)c1Cc1ccc2nccn2c1 [Compound 4.20, 6-Imidazo[1,2-a]pyridin-6-ylmethyl-5-methyl-[1,2,5]oxadiazolo[3,4-b]pyridin-7-ylamine] | 5.51 nM
4 | Cc1nc2nonc2c(N)c1Cc1ccc(Cl)nc1C(F)(F)F [Compound 25.3, 6-{[6-Chloro-2-(trifluoromethyl)pyridin-3-yl]methyl}-5-methyl-[1,2,5]oxadiazolo[3,4-b]pyridin-7-amine] | 7.36 nM
5 | Cc1nc2nonc2c(N)c1Cc1ccnc(OC(F)F)c1 [Compound 4.48, 6-(2-Difluoromethoxy-pyridin-4-ylmethyl)-5-methyl-[1,2,5]oxadiazolo[3,4-b]pyridin-7-ylamine] | 3 nM
6 | Cc1nc2nonc2c(N)c1Cc1ccc(C(C)(C)C)nc1 [Compound 4.7, 6-[(6-tert-butylpyridine-3-yl)methyl]-5-methyl-[1,2,5]oxadiazolo[3,4-b]pyridin-7-amine] | 0.124 nM
7 | Cc1nc2nonc2c(N)c1Cc1ccc(C#N)c(OCCC(F)(F)F)c1 [Compound 21.4, 4-({7-Amino-5-methyl-[1,2,5]oxadiazolo[3,4-b]pyridin-6-yl}methyl)-2-(3,3,3-trifluoropropoxy)benzonitrile] | 0.786 nM
8 | CSc1ccc(Cc2c(C)nc3nonc3c2N)cc1 [Compound 4.19, 5-Methyl-6-{[4-(methylsulfanyl)phenyl]methyl}-[1,2,5]oxadiazolo[3,4-b]pyridin-7-amine] | 0.174 nM
9 | Cc1nc2nonc2c(N)c1Cc1ccc(C(F)(F)F)nc1 [Compound 4.5, 5-Methyl-6-{[6-(trifluoromethyl)pyridin-3-yl]methyl}-[1,2,5]oxadiazolo[3,4-b]pyridin-7-amine] | 1.59 nM
10 | Cc1nc2nonc2c(N)c1Cc1cccc(F)c1 [Compound 4.2, 6-[(3-Fluorophenyl)methyl]-5-methyl-[1,2,5]oxadiazolo[3,4-b]pyridin-7-amine] | 2.26 nM
11 | Cc1nc2nonc2c(N)c1Cc1ccc(C(C)(C)C#N)nc1 [Compound 4.24, 2-[5-({7-Amino-5-methyl-[1,2,5]oxadiazolo[3,4-b]pyridin-6-yl}methyl)pyridin-2-yl]-2-methylpropanenitrile] | 0.838 nM
12 | Cc1nc2nonc2c(N)c1Cc1ccc(C#N)c(OC2CCN(C)C2)c1 (centres unmarked) [Compound 21.8, 4-(7-Amino-5-methyl-[1,2,5]oxadiazolo[3,4-b]pyridin-6-ylmethyl)-2-(1-methyl-pyrrolidin-3-yloxy)-benzonitrile] | 1.09 nM
13 | Cc1nc2nonc2c(N)c1Cc1ccc(OC2CCC2)nc1 [Compound 4.17, 6-[(6-Cyclobutoxypyridin-3-yl)methyl]-5-methyl-[1,2,5]oxadiazolo[3,4-b]pyridin-7-amine] | 0.371 nM
14 | Cc1nc2nonc2c(N)c1Cc1ccc(C(F)F)cc1 [Compound 17.2, 6-{[4-(difluoromethyl)phenyl]methyl}-5-methyl-[1,2,5]oxadiazolo[3,4-b]pyridin-7-amine] | 0.171 nM
15 | Cc1nc2nonc2c(N)c1C(=O)c1ccc(C(F)(F)F)cc1 [Compound 3.1, 5-Methyl-6-[4-(trifluoromethyl)benzoyl]-[1,2,5]oxadiazolo[3,4-b]pyridin-7-amine] | 5.83 nM
16 | Cc1nc2nonc2c(N)c1Cc1ccc(I)cc1 [Compound 1.4, 6-[(4-Iodophenyl)methyl]-5-methyl-[1,2,5]oxadiazolo[3,4-b]pyridin-7-amine] | 0.127 nM

Second part, the compound after the results:

Row | IC50 | SMILES
17 | 6.74 nM | Cc1nc2nonc2c(N)c1Cc1cnc(C(F)(F)F)c(C#N)c1 [Compound 4.60, 5-({7-Amino-5-methyl-[1,2,5]oxadiazolo[3,4-b]pyridin-6-yl}methyl)-2-(trifluoromethyl)pyridine-3-carbonitrile]
18 | 0.534 nM | Cc1nc2nonc2c(N)c1Cc1cc(I)ncc1C(F)(F)F [Compound 4.37, 6-{[2-Iodo-5-(trifluoromethyl)pyridin-4-yl]methyl}-5-methyl-[1,2,5]oxadiazolo[3,4-b]pyridin-7-amine]
19 | 5.55 nM | Cc1nc2nonc2c(N)c1Cc1ccc(C(=O)NCc2ccnnc2)cc1 [Compound 14.14, 4-({7-Amino-5-methyl-[1,2,5]oxadiazolo[3,4-b]pyridin-6-yl}methyl)-N-[(pyridazin-4-yl)methyl]benzamide]
20 | 1.58 nM | Cc1nc2nonc2c(N)c1Cc1ccc(Cl)c(C(N)=O)c1 [Compound 15.3, 5-({7-Amino-5-methyl-[1,2,5]oxadiazolo[3,4-b]pyridin-6-yl}methyl)-2-chlorobenzamide]
21 | 0.49 nM | Cc1nc2nonc2c(N)c1Cc1ccc(S(C)(=O)=O)cc1 [Compound 2.12, 6-[(4-Methanesulfonylphenyl)methyl]-5-methyl-[1,2,5]oxadiazolo[3,4-b]pyridin-7-amine]
22 | 0.096 nM | Cc1nc2nonc2c(N)c1Cc1ccc(OC(F)(F)F)c(C(N)=O)c1 [Compound 15.2, 5-({7-Amino-5-methyl-[1,2,5]oxadiazolo[3,4-b]pyridin-6-yl}methyl)-2-(trifluoromethoxy)benzamide]
23 | 2.25 nM | Cc1nc2nonc2c(N)c1Cc1ccc(C(=O)NCc2ccn(C)n2)cc1 [Compound 14.4, 4-({7-Amino-5-methyl-[1,2,5]oxadiazolo[3,4-b]pyridin-6-yl}methyl)-N-[(1-methyl-1H-pyrazol-3-yl)methyl]benzamide]
24 | 4.53 nM | Cc1nc2nonc2c(N)c1Cc1ccc(C2(C(N)=O)CC2)nc1 [Compound 19.1, 1-[5-({7-Amino-5-methyl-[1,2,5]oxadiazolo[3,4-b]pyridin-6-yl}methyl)pyridin-2-yl]cyclopropane-1-carboxamide]
25 | 8.42 nM | Cc1nc2nonc2c(N)c1Cc1ccc(C2(C(=O)O)CC2)nc1 [Compound 19.2, 1-[5-({7-Amino-5-methyl-[1,2,5]oxadiazolo[3,4-b]pyridin-6-yl}methyl)pyridin-2-yl]cyclopropane-1-carboxylic Acid]
26 | 4.81 nM | Cc1ncc(-c2ccc(Cc3c(C)nc4nonc4c3N)cn2)o1 [Compound 4.22, 5-Methyl-6-{[6-(2-methyl-1,3-oxazol-5-yl)pyridin-3-yl]methyl}-[1,2,5]oxadiazolo[3,4-b]pyridin-7-amine]
27 | 3.64 nM | Cc1nc2nonc2c(N)c1Cc1ccc(C(=O)NCc2cnccn2)cc1 [Compound 14.8, 4-({7-Amino-5-methyl-[1,2,5]oxadiazolo[3,4-b]pyridin-6-yl}methyl)-N-[(pyrazin-2-yl)methyl]benzamide]
28 | 1.41 nM | Cc1nc2nonc2c(N)c1Cc1ccc(C2(C#N)CC2)nc1 [Compound 4.8, 1-[5-({7-Amino-5-methyl-[1,2,5]oxadiazolo[3,4-b]pyridin-6-yl}methyl)pyridin-2-yl]cyclopropane-1-carbonitrile]
29 | 0.495 nM | Cc1nc2nonc2c(N)c1Cc1cccc(OC(F)F)c1 [Compound 4.54, 6-{[3-(Difluoromethoxy)phenyl]methyl}-5-methyl-[1,2,5]oxadiazolo[3,4-b]pyridin-7-amine]
30 | 2.37 nM | Cc1nc2nonc2c(N)c1Cc1ccc(C(=O)NC2CCOCC2)cc1 [Compound 14.5, 4-({7-Amino-5-methyl-[1,2,5]oxadiazolo[3,4-b]pyridin-6-yl}methyl)-N-(oxan-4-yl)benzamide]
31 | 4.5 nM | Cc1nc2nonc2c(N)c1Cc1ccc(C(=O)Nc2ncnn2C)cc1 [Compound 14.17, 4-({7-Amino-5-methyl-[1,2,5]oxadiazolo[3,4-b]pyridin-6-yl}methyl)-N-(1-methyl-1H-1,2,4-triazol-5-yl)benzamide]
32 | 2.49 nM | Cc1nc2nonc2c(N)c1C(=O)c1ccc(OC(F)(F)F)cc1 [Compound 22.2, 5-Methyl-6-[4-(trifluoromethoxy)benzoyl]-[1,2,5]oxadiazolo[3,4-b]pyridin-7-amine]
33 | 2.01 nM | Cc1nc2nonc2c(N)c1Cc1ccc(F)c(C#N)c1 [Compound 2.9, 5-({7-Amino-5-methyl-[1,2,5]oxadiazolo[3,4-b]pyridin-6-yl}methyl)-2-fluorobenzonitrile]
34 | 0.89 nM | Cc1nc2nonc2c(N)c1Cc1cccn2c(C3CC3)nnc12 [Compound 4.13, 6-({3-Cyclopropyl-[1,2,4]triazolo[4,3-a]pyridin-8-yl}methyl)-5-methyl-[1,2,5]oxadiazolo[3,4-b]pyridin-7-amine]
35 | 0.353 nM | Cc1nc2nonc2c(N)c1Cc1ccc(F)cc1F [Compound 2.7, 6-[(2,4-Difluorophenyl)methyl]-5-methyl-[1,2,5]oxadiazolo[3,4-b]pyridin-7-amine]
36 | 3.03 nM | Cc1nc2nonc2c(N)c1Cc1ccccc1 [Compound 2.16, 6-Benzyl-5-methyl-[1,2,5]oxadiazolo[3,4-b]pyridin-7-amine]
37 | 0.098 nM | Cc1nc2nonc2c(N)c1Cc1ccc(C2(C#N)CCCC2)nc1 [Compound 4.26, 1-[5-({7-Amino-5-methyl-[1,2,5]oxadiazolo[3,4-b]pyridin-6-yl}methyl)pyridin-2-yl]cyclopentane-1-carbonitrile]
38 | 0.387 nM | Cc1nc2nonc2c(N)c1Cc1ccc(OC(F)(F)F)cc1 [Compound 1.2, 5-Methyl-6-{[4-(trifluoromethoxy)phenyl]methyl}-[1,2,5]oxadiazolo[3,4-b]pyridin-7-amine]
